Laboratory results published in patent publication US20190045783A1, “SUBSTITUTED IMIDAZOLYLCARBOXAMIDES AS PESTICIDES” (BAYER CROPSCIENCE AKTIENGESELLSCHAFT, priority 2016, published 2019).

Experiments:
[1] = log P by HPLC on reversed-phase column (C18), EEC directive 79/831 Annex V.A8; assay type: physicochemical; conditions: for logP [n]: pH 7.8
[2] = system: green peach aphid (Myzus persicae); assay: Myzus persicae spray test (bell pepper plants); assay type: in vivo; conditions: application rate 20 ppm, after 6 days, 100% = all aphids killed
Description: (§1) Myzus persicae—Spray Test
Solvent: 14 parts by weight of dimethylformamide
(§2) Emulsifier: alkylaryl polyglycol ether
If the addition of ammonium salts or/and penetrants is required, these are each added in a concentration of 1000 ppm to the formulation solution.
Bell pepper plants (Capsicum annuum) severely infested with the green peach aphid (Myzus persicae) are treated by spraying with the active compound formulation in the desired concentration.
After 6 days, the kill in % is determined. 100% means that all of the aphids have been killed; 0% means that none of the aphids have been killed.

[3] = system: green peach aphids (Myzus persicae); assay: Myzus persicae oral test; assay type: in vivo; conditions: application rate 20 ppm, after 5 days, oral, 100% = all aphids killed
Description: (§3) Solvent: 100 parts by weight of acetone
Subsequently, the plates are sealed with parafilm, which a mixed population of green peach aphids (Myzus persicae) within a second microtitre plate is able to puncture and imbibe the solution through it.
After 5 days, the efficacy in % is determined. 100% means that all the aphids have been killed; 0% means that no aphids have been killed.

[4] = system: green peach aphids (Myzus persicae); assay: Myzus persicae oral test (MYZUPE O), comparison with prior art; assay type: in vivo; conditions: Myzus persicae, po, 120 h, MYZUPE O, 5 dat, read-out: % efficacy
Description: Myzus persicae—Oral Test (MYZUPE O)
as §3
50 μl of the active compound preparation are transferred into microtitre plates and made up to a final volume of 200 μl with 150 μl of IPL41 insect medium (33%+15% sugar). Subsequently, the plates are sealed with parafilm, which a mixed population of green peach aphids (Myzus persicae) within a second microtitre plate is able to puncture and imbibe the solution through it.
After the desired period of time (dat), the efficacy in % is determined. 100% means that all the aphids have been killed; 0% means that no aphids have been killed.

[5] = system: green peach aphid (Myzus persicae); assay: Myzus persicae spray test (Chinese cabbage leaf discs); assay type: in vivo; conditions: application rate 500 g/ha, after 5-6 days, Chinese cabbage leaf discs; 100% = all aphids killed
Description: as §1
To produce a suitable active ingredient formulation, 1 part by weight of active ingredient is dissolved with the stated parts by weight of solvent and made up with water containing an emulsifier concentration of 1000 ppm until the desired concentration is attained. To produce further test concentrations, the formulation is diluted with emulsifier-containing water.
After 5-6 days, the efficacy in % is determined. 100% means that all the aphids have been killed; 0% means that no aphids have been killed.

[6] = system: engorged adult female cattle ticks (Boophilus microplus); assay: Boophilus microplus injection test; assay type: in vivo; conditions: 20 μg/animal, assessed after 7 days, 100% = no tick laid fertile eggs
Description: Boophilus microplus—Injection Test
Solvent: dimethyl sulphoxide
To produce a suitable preparation of active compound, 10 mg of active compound are mixed with 0.5 ml of solvent and the concentrate is diluted with solvent to the desired concentration.
1 μl of the active compound solution is injected into the abdomen of 5 engorged adult female cattle ticks (Boophilus microplus). The animals are transferred into dishes and kept in a climate-controlled room.
Efficacy is assessed after 7 days by laying of fertile eggs. Eggs which are not visibly fertile are stored in a climate-controlled cabinet until the larvae hatch after about 42 days. An efficacy of 100% means that none of the ticks has laid any fertile eggs; 0% means that all the eggs are fertile.

[7] = system: caterpillars of the armyworm (Spodoptera frugiperda); conditions: application rate 500 g/ha, after 7 days, maize leaf discs; 100% = all caterpillars killed
Description: Spodoptera Frugiperda—Spray Test
as §2
To produce further test concentrations, the formulation is diluted with emulsifier-containing water.
After 7 days, the efficacy in % is determined. 100% means that all the caterpillars have been killed; 0% means that no caterpillar has been killed.

[8] = system: larvae of the mustard beetle (Phaedon cochleariae); conditions: application rate 500 g/ha, after 7 days, Chinese cabbage leaf discs; 100% = all beetle larvae killed
Description: Phaedon cochleariae—Spray Test
After 7 days, the efficacy in % is determined. 100% means that all the beetle larvae have been killed; 0% means that no beetle larvae have been killed.

Row | Compound | chromatographic logP ([1]; reversed-phase HPLC column (C18), neutral range, pH 7.8, HPLC C18, 43° C., Table 1, read-out: logP [n]) | kill in % (efficacy) [2] [%] | pest or weed control at 20 ppm ([3]; Myzus persicae, 120 h, read-out: efficacy in %) [%] | Emax at 0.8 ppm ([4]; 0.8 ppm) [%] | Emax at 4 ppm ([4]; 4 ppm) [%] | logP [n] [1] | efficacy in % [5] [%] | efficacy in % [3] [%] | efficacy (laying of fertile eggs) [6] [%] | efficacy in % [7] [%] | efficacy in % [8] [%]
1 | CN(C(=O)c1cnc(C2OCCCO2)n1C)c1cccnc1 [I-1-006] | 0.92 | 98 | 100 | 100 | 100 |  |  |  |  |  | 
2 | CN(C(=O)c1cnc(/C=N/OCC(F)(F)F)n1C)c1cccnc1 [I-1-031] |  |  |  |  |  | 1.68 | 90 | 100 | 80 |  | 
3 | CN(C(=O)c1cnc(/C=N/OC(C)(C)C)n1C)c1cccnc1 [I-1-037] |  |  |  |  |  | 1.99 | 100 | 100 | 90 |  | 
4 | CCN(C(=O)c1cnc(C=O)n1C)c1cccnc1 [I-1-039] |  |  |  |  |  | 0.97 |  | 100 |  | 83 | 100
